{"source": "patent US5316773A", "about": "“Particulate preparation containing a flourracil derivative and hydroxypropylmethyl-cellulose” (Otsuka Pharmaceutical Co., Ltd., priority 1990, dated 1994)", "key": {"[1]": {"experiment": "Absorption test using beagle (oral administration, EM-FU concentration in plasma)", "type": "in vivo", "details": "preparations corresponding to 100 mg BOF-A2 per beagle, all cases"}, "[2]": {"details": "after administration in vivo; via conversion into EM-FU and CNDP; cited from earlier work"}}, "data": [{"smiles": "CCOCn1cc(F)c(=O)n(C(=O)c2cccc(C(=O)Oc3nc(OC(=O)c4ccccc4)ccc3C#N)c2)c1=O", "note": "[BOF-A2, 3-[3-(6-Benzoyloxy-3-cyano-2-pyridyloxycarbonyl)benzoyl]-1-ethoxymethyl-5-fluorouracil]", "values": [{"measurement": "non-changed compound (BOF-A2) in plasma", "setting": "[1]", "value": "not detected"}, {"measurement": "anti-cancer activity", "setting": "[2]", "value": "continuous and strong anti-cancer activity"}]}]}
